Patent publication US10131657B2, “Bromodomain inhibitors” (AbbVie Inc., priority 2013, dated 2018)

How the values were obtained:
BRD4 (BDI_K57-E168) = target: T1, BRD4 (BDI_K57-E168) (Homo sapiens, UniProt O60885); experiment: TR-FRET bromodomain binding assay, BRD4 first bromodomain; settings: His-tagged BRD4 BD1, 100 nM Alexa647 probe; Ki calculated from IC50, probe Kd and probe concentration
T1 construct: BD1: amino acids K57-E168; made in house
Method: (§1) A time-resolved fluorescence resonance energy transfer (TR-FRET) assay was used to determine the affinities of compounds of the Examples listed in Table 1 for each bromodomain of BRD4. His-tagged first (BD1: amino acids K57-E168) and second (BD2: amino acids E352-E168) bromodomains of BRD4 were expressed and purified. An Alexa647-labeled BET-inhibitor was used as the fluorescent probe in the assay.
(§2) Compound dilution series were prepared in DMSO via a 3-fold serial dilution from 2.5 mM to 42 nM. Compounds were then diluted 6:100 in assay buffer (20 mM Sodium Phosphate, pH 6.0, 50 mM NaCl, 1 mM Ethylenediaminetetraacetic acid disodium salt dihydrate, 0.01% Triton X-100, 1 mM DL-Dithiothreitol) to yield 3× working solutions. Six microliters (μL) of the working solution was then transferred to white, low-volume assay plates (Costar #3673). A 1.5× assay mixture containing His-tagged bromodomain, Europium-conjugated anti-His antibody (Invitrogen PV5596) and the Alexa-647-conjugated probe molecule was also prepared. Twelve μL of this solution were added to the assay plate to reach a final volume of 18 μL. The final concentration of 1× assay buffer contains 2% DMSO, 50 μM-0.85 nM compound, 8 nM His-tagged bromodomain, 1 nM Europium-conjugated anti-His-tag antibody and 100 nM or 30 nM probe (for BDI or BDII, respectively). After a one-hour incubation at room temperature, TR-FRET ratios were determined using an Envision multilabel plate reader (Ex 340, Em […]).
(§3) TR-FRET data were normalized to the means of 24 no-compound controls (“high”) and 8 controls containing 1 μM un-labeled probe (“low”). […] Inhibition constants (Ki) were calculated from the IC50s, probe Kd and probe concentration. […] The minimum significant ratio was determined to evaluate assay reproducibility (Eastwood et al., (2006) J Biomol Screen, 11: 253-261). The MSR was determined to be 2.03 for BDI and 1.93 for BDII, and a moving MSR (last six run MSR overtime) for both BDI and BDII was typically <3.

BRD4 (BDII_E352-M457) = target: T2, BRD4 (BDII_E352-M457) (Homo sapiens, UniProt O60885); experiment: TR-FRET bromodomain binding assay, BRD4 second bromodomain; settings: His-tagged BRD4 BD2, 30 nM Alexa647 probe; Ki calculated from IC50, probe Kd and probe concentration
T2 construct: made in house
Method: as §1, §2, §3

[1] = tested on: breast cancer cell line MX-1; experiment: MX-1 cell line proliferation assay, Method A; type: cell-based; settings: Homo sapiens, MX1; MX-1 cells, 96-well, 72 hours, Cell Titer Glo; read-out: Cellular proliferation: EC50 Method A
Summary of the method: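 MX-1 breast cancer cells (5000/well) were attached overnight in RPMI 1640 with 10% FBS, then exposed for 3 days to compound at 0.0001–3 μM final. Cell Titer Glo luminescence was normalized to DMSO controls, and EC50s were obtained by sigmoidal fitting.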

[2] = tested on: breast cancer cell line MX-1; experiment: MX-1 cell line proliferation assay, Method B; type: cell-based; settings: Homo sapiens, MX1; MX-1 cells, 384-well, 72 hours, Cell Titer Glo; read-out: Cellular proliferation: EC50 Method B
Method: The impact of compounds of the Examples on cancer cell proliferation was determined using the breast cancer cell line MX-1 (ATCC) in a 3-day proliferation assay and the data are reported in Table 1.
MX-1 cells were maintained in RPMI 1640 medium (Sigma) supplemented with 10% FBS at 37° C. and an atmosphere of 5% CO2. For compound testing, MX-1 cells were plated in 384-well white with clear, flat bottom plates at a density of 750 cells/well in 25 μL of culture media and incubated at 370 overnight to allow cell adhesion and spreading. Ten point compound dilution series were prepared in DMSO via a 3-fold serial dilution from either 10 μM or 1 μM stock and added directly to the appropriate wells of the MX-1 cell plate by an ECHO liquid handler (Labcyte). The final compound concentrations in the wells were 10, 3.25, 1, 0.25, 0.124, 0.040, 0.0124, 0.0031, 0.0015 and 0.0005 μM or 1, 0.33, 0.1, 0.025, 0.0124, 0.004, 0.0012, 0.0003, 0.00015, 0.00005 μM, depending on the concentration of the compound stock solution.
Luminescence readings from the Cell Titer Glo assay were normalized to the DMSO treated cells and analyzed using Accelrys Assay Explorer 3.3 software with sigmoidal curve fitting to obtain EC50s. The minimum significant ratio (MSR) was determined to evaluate assay reproducibility (Eastwood et al., (2006) J Biomol Screen, 11: 253-261). The overall MSR was determined to be 3.3 and a moving MSR (last six run MSR overtime) has averaged 2.1.

EC50 [2] | SMILES | further results
9320 nM | CCNC(=O)c1cc2c(-c3cc(S(=O)(=O)CC)ccc3Oc3c(C)cccc3CN3CCOCC3)cn(C)c(=O)c2[nH]1 [Example 146, N-ethyl-4-{5-(ethylsulfonyl)-2-[2-methyl-6-(morpholin-4-ylmethyl)phenoxy]phenyl}-6-methyl-7-oxo-6,7-dihydro-1H-pyrrolo[2,3-c]pyridine-2-carboxamide] | 
6320 nM | CCNC(=O)c1cc2c(-c3cc(S(=O)(=O)CC)ccc3Oc3c(C)cccc3CN3CCCCC3)cn(C)c(=O)c2[nH]1 [Example 147, N-ethyl-4-{5-(ethylsulfonyl)-2-[2-methyl-6-(piperidin-1-ylmethyl)phenoxy]phenyl}-6-methyl-7-oxo-6,7-dihydro-1H-pyrrolo[2,3-c]pyridine-2-carboxamide] | 
1680 nM | CCNC(=O)c1cc2c(-c3cc(S(=O)(=O)CC)ccc3Oc3c(C)cccc3CCc3ccccc3)cn(C)c(=O)c2[nH]1 [Example 148, N-ethyl-4-{5-(ethylsulfonyl)-2-[2-methyl-6-(2-phenylethyl)phenoxy]phenyl}-6-methyl-7-oxo-6,7-dihydro-1H-pyrrolo[2,3-c]pyridine-2-carboxamide] | 
1.18 nM | CCS(=O)(=O)c1ccc(OC2CCCCC2)c(-c2cn(C)c(=O)c3[nH]c(-c4cnn(C5CCNCC5)c4)cc23)c1 [Example 149, 4-[2-(cyclohexyloxy)-5-(ethylsulfonyl)phenyl]-6-methyl-2-[1-(piperidin-4-yl)-1H-pyrazol-4-yl]-1,6-dihydro-7H-pyrrolo[2,3-c]pyridin-7-one] | 
> 10000 nM | CCNC(=O)c1cc2c(-c3cc(S(=O)(=O)CC)ccc3Oc3c(C)cccc3Cn3ccnc3)cn(C)c(=O)c2[nH]1 [Example 150, N-ethyl-4-{5-(ethylsulfonyl)-2-[2-(1H-imidazol-1-ylmethyl)-6-methylphenoxy]phenyl}-6-methyl-7-oxo-6,7-dihydro-1H-pyrrolo[2,3-c]pyridine-2-carboxamide] | 
8140 nM | CCNC(=O)c1cc2c(-c3cc(S(=O)(=O)CC)ccc3Oc3c(C)cccc3CN3CCCS3(=O)=O)cn(C)c(=O)c2[nH]1 [Example 152, 4-[2-{2-[(1,1-dioxido-1,2-thiazolidin-2-yl)methyl]-6-methylphenoxy}-5-(ethylsulfonyl)phenyl]-N-ethyl-6-methyl-7-oxo-6,7-dihydro-1H-pyrrolo[2,3-c]pyridine-2-carboxamide] | 
599 nM | Cn1cc(-c2cc(S(C)(=O)=O)ccc2Oc2ccc(F)cc2F)c2cc(CNCCC(N)=O)[nH]c2c1=O [Example 159, 3-[({4-[2-(2,4-difluorophenoxy)-5-(methylsulfonyl)phenyl]-6-methyl-7-oxo-6,7-dihydro-1H-pyrrolo[2,3-c]pyridin-2-yl}methyl)amino]propanamide] | 
1950 nM | CCNC(=O)c1cc2c(-c3ccc(C(=O)N(CCCN4CCOCC4)Cc4ccccc4)cc3Oc3c(C)cccc3C)cn(C)c(=O)c2[nH]1 [Example 161, 4-[4-{benzyl[3-(morpholin-4-yl)propyl]carbamoyl}-2-(2,6-dimethylphenoxy)phenyl]-N-ethyl-6-methyl-7-oxo-6,7-dihydro-1H-pyrrolo[2,3-c]pyridine-2-carboxamide] | 

More lines, now with the values behind:

SMILES | EC50 [2] | further results
CCS(=O)(=O)c1ccc(OCC2CC2(F)F)c(-c2cn(C)c(=O)c3[nH]c(CN4CCN(c5ncccn5)CC4)cc23)c1 (centres unmarked) [Example 19, 4-{2-[(2,2-difluorocyclopropyl)methoxy]-5-(ethylsulfonyl)phenyl}-6-methyl-2-{[4-(pyrimidin-2-yl)piperazin-1-yl]methyl}-1,6-dihydro-7H-pyrrolo[2,3-c]pyridin-7-one] |  | Ki (BRD4 (BDI_K57-E168)): 6.1 nM; Ki (BRD4 (BDII_E352-M457)): 62 nM
COc1ccc(S(=O)(=O)Nc2cccc(Oc3ccc(S(C)(=O)=O)cc3-c3cn(C)c(=O)c4[nH]ccc34)c2)cc1OC [Example 53, 3,4-dimethoxy-N-{3-[2-(6-methyl-7-oxo-6,7-dihydro-1H-pyrrolo[2,3-c]pyridin-4-yl)-4-(methylsulfonyl)phenoxy]phenyl}benzenesulfonamide] |  | Ki (BRD4 (BDI_K57-E168)): 3.4 nM; EC50 [1]: 144 nM; Ki (BRD4 (BDII_E352-M457)): 1 nM
Cn1cc(-c2cc(S(C)(=O)=O)ccc2NC2CCN(S(=O)(=O)/C=C/c3ccccc3)CC2)c2cc[nH]c2c1=O [Example 102, 6-methyl-4-{5-(methylsulfonyl)-2-[(1-{[(E)-2-phenylethenyl]sulfonyl}piperidin-4-yl)amino]phenyl}-1,6-dihydro-7H-pyrrolo[2,3-c]pyridin-7-one] |  | Ki (BRD4 (BDI_K57-E168)): 6 nM; EC50 [1]: 67.3 nM; Ki (BRD4 (BDII_E352-M457)): 6.8 nM
CCN(CC)C(C)(C)CNC(=O)c1cc2c(-c3cc(S(C)(=O)=O)ccc3Oc3c(C)cccc3C)cn(C)c(=O)c2[nH]1 [Example 143, N-[2-(diethylamino)-2-methylpropyl]-4-[2-(2,6-dimethylphenoxy)-5-(methylsulfonyl)phenyl]-6-methyl-7-oxo-6,7-dihydro-1H-pyrrolo[2,3-c]pyridine-2-carboxamide] | 532 nM | 
CCN(CC)CCCCNC(=O)c1cc2c(-c3cc(S(C)(=O)=O)ccc3Oc3c(C)cccc3C)cn(C)c(=O)c2[nH]1 [Example 144, N-[4-(diethylamino)butyl]-4-[2-(2,6-dimethylphenoxy)-5-(methylsulfonyl)phenyl]-6-methyl-7-oxo-6,7-dihydro-1H-pyrrolo[2,3-c]pyridine-2-carboxamide] | 498 nM | 
CCNC(=O)c1cc2c(-c3ccc(C(=O)N(CC(=O)NC)Cc4ccccn4)cc3Oc3c(C)cccc3C)cn(C)c(=O)c2[nH]1 [Example 153, 4-[2-(2,6-dimethylphenoxy)-4-{[2-(methylamino)-2-oxoethyl](pyridin-2-ylmethyl)carbamoyl}phenyl]-N-ethyl-6-methyl-7-oxo-6,7-dihydro-1H-pyrrolo[2,3-c]pyridine-2-carboxamide] | > 10000 nM | 
Cn1cc(-c2cc(S(C)(=O)=O)ccc2Oc2ccc(F)cc2F)c2cc(CN3CC(n4cncn4)C3)[nH]c2c1=O [Example 156, 4-[2-(2,4-difluorophenoxy)-5-(methylsulfonyl)phenyl]-6-methyl-2-{[3-(1H-1,2,4-triazol-1-yl)azetidin-1-yl]methyl}-1,6-dihydro-7H-pyrrolo[2,3-c]pyridin-7-one] | 332 nM | 
